SMILES strings stand for the structures.

Our source for the Dose values is ChEMBL document CHEMBL1129183, “Correlation of oxidation potential and toxicity in thiobenzamides” (Bioorg Med Chem Lett, 1996).

The nature of this data set: Lethal dose to rats was determined. In kind it is toxicity. Conditions: rat, in vivo.

For `Cc1ccc(C(N)=S)cc1`, the Dose was 2 mM/kg.

`COc1ccc(C(N)=S)cc1` had a Dose of 2 mM/kg.
